Results published in patent US20160302412A1, “USES OF SALICYLIC ACID” (UNIVERSITY OF TENNESSEE RESEARCH FOUNDATION, priority 2013, published 2016).

System: snap bean seedling diseases (Pythium spp., Rhizoctonia solani, Macrophomina phaseolina, and Fusarium spp.)
Assay: Spring-planted 2013 snap bean field test
Settings: in vivo

Compound: O.O.O=C([O-])c1ccccc1O.O=C([O-])c1ccccc1O.[Ca+2] [calcium salicylate, calcium salicylate dihyrate]
- Overall snap bean yield: highest
- Seedling emergence 15 days after planting (May 8): greatest
- healthy plant stands: highest
